In publication PMC5620987 (ACS Central Science, 2017):
Like-named read-outs stand apart in the source and are kept apart here.

What was measured:
H3K9ac = format: cell-based; conditions: 6 h, human iPSC-derived NPCs, Western blot
α-tubulin-ac = format: cell-based; conditions: 6 h, human iPSC-derived NPCs, Western blot
H4K12ac = format: cell-based; conditions: 6 h, human iPSC-derived NPCs, Western blot
HDAC6 = HDAC6 (Rattus norvegicus, UniProt A0A8I6GM68); test: Autoradiography with [18F]Bavarostat on rat brain slices; format: binding, Sprague–Dawley rat; conditions: sagittal rat brain slices; 10 μM per Figure 4 legend (100 μM per method)
Sequence of HDAC6 (A0A8I6GM68 whole entry): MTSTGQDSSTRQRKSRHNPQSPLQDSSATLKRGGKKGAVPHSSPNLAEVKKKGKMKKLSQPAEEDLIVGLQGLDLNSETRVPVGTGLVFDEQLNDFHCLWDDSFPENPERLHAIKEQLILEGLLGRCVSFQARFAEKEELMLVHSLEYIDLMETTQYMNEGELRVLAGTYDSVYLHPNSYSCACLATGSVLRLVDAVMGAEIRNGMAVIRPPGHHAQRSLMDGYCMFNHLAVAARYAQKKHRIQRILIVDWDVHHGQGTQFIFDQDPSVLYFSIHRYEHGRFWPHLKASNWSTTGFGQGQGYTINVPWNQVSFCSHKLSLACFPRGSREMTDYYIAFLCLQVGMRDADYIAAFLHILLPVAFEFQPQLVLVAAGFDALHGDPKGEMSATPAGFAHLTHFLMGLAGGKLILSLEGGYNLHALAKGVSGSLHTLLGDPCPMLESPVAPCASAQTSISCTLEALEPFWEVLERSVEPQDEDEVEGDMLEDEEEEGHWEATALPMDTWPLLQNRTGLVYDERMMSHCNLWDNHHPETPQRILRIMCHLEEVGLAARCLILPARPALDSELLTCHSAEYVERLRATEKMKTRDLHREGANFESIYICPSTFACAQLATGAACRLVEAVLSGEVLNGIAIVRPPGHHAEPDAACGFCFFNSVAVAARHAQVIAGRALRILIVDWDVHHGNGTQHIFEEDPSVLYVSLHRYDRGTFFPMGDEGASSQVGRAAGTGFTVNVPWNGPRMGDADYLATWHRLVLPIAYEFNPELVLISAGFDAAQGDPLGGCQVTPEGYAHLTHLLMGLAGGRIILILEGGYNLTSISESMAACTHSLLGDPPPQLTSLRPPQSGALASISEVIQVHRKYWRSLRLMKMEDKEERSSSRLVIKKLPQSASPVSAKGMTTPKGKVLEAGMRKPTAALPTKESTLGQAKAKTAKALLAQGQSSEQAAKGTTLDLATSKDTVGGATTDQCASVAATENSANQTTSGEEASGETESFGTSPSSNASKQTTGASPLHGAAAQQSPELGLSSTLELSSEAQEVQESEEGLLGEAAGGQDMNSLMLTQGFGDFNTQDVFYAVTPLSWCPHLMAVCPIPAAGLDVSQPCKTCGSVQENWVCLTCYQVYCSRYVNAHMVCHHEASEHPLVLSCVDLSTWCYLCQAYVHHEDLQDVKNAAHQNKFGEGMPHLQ

| Reduction of bound [18F]Bavarostat radioactivity (HDAC6) | Structure (SMILES) | H3K9ac level vs DMSO (H3K9ac; 5 μM) | α-tubulin acetylation level (α-tubulin-ac) vs DMSO (α-tubulin-ac; 5 μM) | H4K12ac level vs DMSO (H4K12ac; 5 μM) | H3K9ac level vs DMSO (H3K9ac; 10 μM) | α-tubulin acetylation level (α-tubulin-ac) vs DMSO (α-tubulin-ac; 10 μM) | H4K12ac level vs DMSO (H4K12ac; 10 μM) |
| --- | --- | --- | --- | --- | --- | --- | --- |
| – | O=C(CCCCCCNC(=O)c1cnc(N(c2ccccc2)c2ccccc2)nc1)NO [ACY-1215] | increased | effectively increased | increased | – | – | – |
| – | CC(=O)Nc1ccc(C(=O)Nc2ccccc2N)cc1 [CI-994] | – | – | – | significant increase | not α-tubulin-ac | significant increase |
| comparable level as Bavarostat | CN1CCc2c(c3ccccc3n2Cc2ccc(C(=O)NO)cc2)C1 [Tubastatin A] | – | – | – | – | significantly increased | – |
